Laboratory results from patent US5453426A, “Sulfur-containing xanthine derivatives as adenosine antagonists” (priority 1994, dated 1995).
Values after ≈ are worked out from the molar mass of the structure shown. One block for each compound: values may come before it.

Assays:
A1 receptor = settings: relative to 8-phenyltheophylline; cited from earlier work
A2 receptor = settings: relative to 8-phenyltheophylline; cited from earlier work
A2 adenosine receptors = A2 adenosine receptors (Rattus norvegicus, UniProt P30543); experiment: Inhibition of binding of [3H]N-ethylcarboxamidoadenosine to A2-adenosine receptors in rat striatal membranes
Procedure: Affinity at A1 - and A2 -adenosine receptors was measured in competitive binding assays, using as radioligands [^3 H]N^6 -phenylisopropyladenosine^17 (with rat cerebral cortical membranes) and [^3 H]5'-N-ethylcarboxamidoadenosine (with rat striatal membranes),^18 respectively.
N^6 -Cyclopentyladenosine was present at 50 nM to inhibit binding of the ligand at A1 -adenosine receptors. Inhibition of binding by a range of concentrations of xanthines was assessed in triplicate in at least three separate experiments. IC50 -values were converted to Ki-values by the method of Bruns et al,^18 using a conversion factor derived from the affinity of [^3 H]N-ethylcarboxamidoadenosine at A2 receptors and the Cheng-Prusoff equation.^19

[1] = Limit of solubility in the A2 binding assay; format: physicochemical; settings: binding assay medium
Text: Thus, compound 22 is >285-fold A1 -selective in these binding assays.

A1 adenosine receptors = biological target: T1, A1 adenosine receptors (Rattus norvegicus, UniProt P25099); experiment: Inhibition of binding of [3H]N6-phenylisopropyladenosine to A1 adenosine receptors in rat cerebral cortical membranes
T1 construct: A1 adenosine receptors in rat cerebral cortical membranes; from tissue; host or cells: rat cerebral cortex membranes
T1 sequence (P25099 1-326): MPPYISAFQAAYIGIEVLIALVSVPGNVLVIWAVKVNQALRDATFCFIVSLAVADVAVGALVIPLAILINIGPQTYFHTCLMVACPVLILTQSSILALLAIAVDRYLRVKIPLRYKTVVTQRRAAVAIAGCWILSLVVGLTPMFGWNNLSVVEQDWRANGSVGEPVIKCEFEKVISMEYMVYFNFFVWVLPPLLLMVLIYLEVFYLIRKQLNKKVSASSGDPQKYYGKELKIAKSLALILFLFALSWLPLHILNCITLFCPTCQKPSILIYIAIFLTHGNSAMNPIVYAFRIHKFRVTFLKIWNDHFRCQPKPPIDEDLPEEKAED

[2] = biological target: Nethylcarboxamidoadenosine-stimulated adenylat cyclase; settings: PC12 cell membranes; printed in brackets in the A2 Ki column; ref 10b; read-out: Kb for inhibition of N-ethylcarboxamidoadenosine-stimulated adenylate cyclase; cited from earlier work
adenosine receptor = settings: background; read-out: Ki-values as adenosine antagonists; cited from earlier work

A2 adenosine receptors, sequence (P30543 whole entry): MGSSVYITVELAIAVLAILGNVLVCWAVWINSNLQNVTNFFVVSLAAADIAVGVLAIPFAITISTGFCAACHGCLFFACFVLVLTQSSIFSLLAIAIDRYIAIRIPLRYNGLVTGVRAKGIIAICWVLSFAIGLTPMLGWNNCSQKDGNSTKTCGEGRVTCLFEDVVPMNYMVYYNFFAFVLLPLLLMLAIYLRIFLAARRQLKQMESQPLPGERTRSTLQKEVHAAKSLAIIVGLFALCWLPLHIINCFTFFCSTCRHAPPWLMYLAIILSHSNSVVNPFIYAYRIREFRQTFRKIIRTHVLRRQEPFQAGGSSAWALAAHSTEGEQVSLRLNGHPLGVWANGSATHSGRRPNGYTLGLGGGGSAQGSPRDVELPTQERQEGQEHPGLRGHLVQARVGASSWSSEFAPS

Compound: Cn1c(=O)c2sc(-c3ccccc3)nc2n(C)c1=O
reduction of activity at an A1 receptor by thio-substitution (A1 receptor): 1000 fold
reduction of activity at an A2 receptor by thio-substitution (A2 receptor): ~100 fold

Ki (A2 adenosine receptors): > 10000 nM
solubility [1]: ~10 µM (≈ 3.34 µg/mL)
A1-selectivity (A1 adenosine receptors; A1 (rat cortex) versus A2 (rat striatum) binding): > 285 fold
A1-selectivity, in words (A1 adenosine receptors; A1 versus A2 binding, relative to oxygen analogs): a greater margin of A1 -selectivity
Ki (A1 adenosine receptors; rat cortical membranes, [3H]PIA, single determination in triplicate or average of three ± S.E.M., read-out: Ki A1-receptors): 35.1 ± 6 nM
Ki (A2)/Ki (A1) (A1 adenosine receptors; ratio of A2 (rat striatum) to A1 (rat cortex) Ki): > 285
Compound: CCCn1c(=O)c2[nH]c(-c3cccs3)nc2n(CCC)c1=S [Compound 22, 1,3-Dipropyl-8-(2-thienyl)-2-thioxanthine]
A2 affinity/potency, in words (A2 adenosine receptors; relative to the analogs named in the text): did not bind measurably to A2 -receptors at its limit of solubility

Compound: CCCn1c(=O)c2[nH]c(-c3ccc(OCC(=O)NCCNC)cc3)nc2n(CCC)c1=O [Compound 32]
Kb [2]: 9.3 ± 2.1 nM

Compound: Cn1c(=O)c2[nH]cnc2n(C)c1=O [Compound 1a, theophylline]
Ki (adenosine receptor): ≥ 10000 nM
